Like-named read-outs stand apart in the source and are kept apart here.
Legend:
USP30 [1] = molecular target: T1, USP30 (Homo sapiens (Human), UniProt Q70CQ3); test: Dundee MALDI-TOF mass spectrometry assay (% DUB activity remaining at 1 μM); format: biochemical; details: % DUB activity remaining at compound concentration of 1 μM; avg; read-out: Dundee % Activity at 1 μM (avg in vitro MS assay)
Protocol: Compounds were tested in a MALDI-TOF assay based on the paper by Ritorto et al. (Ritorto et al. Screening of DUB activity and specificity by MALDI-TOF mass spectrometry. Nat. Commun. 5:4763).
USP30 (25 ng/μl) tested against K48-linked diubiquitin (5.6 μM). USP30 was diluted in a buffer containing 40 mM Tris, 0.01% BSA, 1 mM DTT and K48 in 40 mM Tris, 0.01% BSA.
The compounds were pre-incubated with the USP30 for 5 mins at room temp before the K48 dimer addition. The assay mixture was then incubated for 45 mins at room temp. The assay was stopped by the addition of TFA to a final concentration of 2% (v/v).
Acidified samples of the DUB assays were mixed with 0.5 mM 15N-ubiquitin and then with one part of 2% (v/v) TFA and one part of 2,5 DHAP matrix solution (7.6 mg of 2,5 DHAP in […] ethanol and […] of an aqueous 12 mg ml 1 diammonium hydrogen citrate). Then 250 nl of these solutions were spotted onto an MTP AnchorChip 1,536 TF and this is analysed on the Bruker rapifleX MALDI-TOF.
Table 22 presents the Dundee MALDI-TOF values expressed as % DUB activity remaining at a compound concentration of 1 μM.

[2] = molecular target: recombinant USP30 (amino acids 57-517 of the human sequence) (Homo sapiens (Human), UniProt Q70CQ3); test: In vitro USP30 biochemical assay (Ubiquitin-Rhodamine)
Protocol: In vitro biochemical assay to establish the potency of compounds for USP30 inhibition: a 384-well plate assay using a fluorophore tagged substrate of USP30 was used for in vitro screening of compounds. Each compound was tested at 10 different concentrations (0.5 to 10,000 nM) in duplicate wells. Compounds were pre-incubated at 25° C. for 30 min in an assay buffer consisting of 20 mM Tris/HCl, pH8.0, 1 mM GSH, 0.01% Triton X-100, 0.03% BGG and 1.5 nM recombinant USP30 (amino acids 57-517 of the human sequence with a C-terminal 6-His tag). Following the pre-incubation, Ubiquitin-Rhodamine substrate dissolved in the assay buffer was added at the final concentration of 25 nM to each well and plates were incubated at 25° C. for an additional 75 minutes. The reaction was stopped by adding 10 mM citric acid and fluorescence was read using excitation wavelength 485 nm, emission of 535 nm. Data were analyzed using Graph Pad Prism software with a four-parameter (floating slope) fit to log concentration data to determine IC50s.

USP30 [3] = molecular target: T1, USP30; test: Dundee MALDI-TOF mass spectrometry assay (IC50); format: biochemical; details: USP30 25 ng/μl, K48-linked diubiquitin 5.6 μM, avg, read-out: Dundee IC50 μM (avg in vitro MS assay)
In short: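 USP30 (25 ng/μl) preincubated with compound 5 min at RT in Tris/BSA/DTT buffer, then K48-linked diubiquitin (5.6 μM) added for 45 min at RT. Stopped with 2% TFA; cleavage quantified by MALDI-TOF mass spectrometry to give IC50.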

[4] = read-out: USP30 IC50 μM (avg), Ubiquitin-Rhodamine substrate 25 nM, 1.5 nM recombinant USP30
[5] = USP30 IC50 μM (avg), Ubiquitin-Rhodamine substrate 25 nM, 1.5 nM recombinant USP30

Sequence of recombinant USP30 (amino acids 57-517 of the human sequence) (Q70CQ3 57-517): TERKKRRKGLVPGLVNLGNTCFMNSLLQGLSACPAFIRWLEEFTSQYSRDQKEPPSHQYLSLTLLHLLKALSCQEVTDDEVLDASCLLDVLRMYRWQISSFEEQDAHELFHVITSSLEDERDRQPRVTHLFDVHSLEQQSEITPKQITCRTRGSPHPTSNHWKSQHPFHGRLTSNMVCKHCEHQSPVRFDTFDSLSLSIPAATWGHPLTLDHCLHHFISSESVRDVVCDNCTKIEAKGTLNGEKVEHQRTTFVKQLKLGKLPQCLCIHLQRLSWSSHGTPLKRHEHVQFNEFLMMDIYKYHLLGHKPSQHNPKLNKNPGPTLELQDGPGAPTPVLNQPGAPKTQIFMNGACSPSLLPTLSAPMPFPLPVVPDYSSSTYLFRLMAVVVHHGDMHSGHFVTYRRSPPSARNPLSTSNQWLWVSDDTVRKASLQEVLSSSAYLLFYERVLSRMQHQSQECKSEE
T1 sequence (Q70CQ3 whole entry): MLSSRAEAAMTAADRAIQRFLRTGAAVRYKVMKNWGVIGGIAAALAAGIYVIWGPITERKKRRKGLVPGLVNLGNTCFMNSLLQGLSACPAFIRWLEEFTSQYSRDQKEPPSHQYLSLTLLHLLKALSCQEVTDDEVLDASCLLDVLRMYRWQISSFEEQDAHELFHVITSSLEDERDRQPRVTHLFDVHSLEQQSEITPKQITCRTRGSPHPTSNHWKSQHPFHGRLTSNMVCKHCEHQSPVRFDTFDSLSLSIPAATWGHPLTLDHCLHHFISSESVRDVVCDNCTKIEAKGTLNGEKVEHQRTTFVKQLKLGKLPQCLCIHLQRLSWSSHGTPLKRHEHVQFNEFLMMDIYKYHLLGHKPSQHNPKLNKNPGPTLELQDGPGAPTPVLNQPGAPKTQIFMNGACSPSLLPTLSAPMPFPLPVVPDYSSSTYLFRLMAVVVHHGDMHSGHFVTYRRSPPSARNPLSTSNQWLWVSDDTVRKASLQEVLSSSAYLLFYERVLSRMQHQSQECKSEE

Row | activity at 1 µM (USP30 [1]) [%] | IC50 [2, 4] [µM] | IC50 [2, 5] [µM] | IC50 (USP30 [3]) [µM] | Compound
1 | > 75 | > 10 | – | – | CC(C)(C)NS(=O)(=O)c1ccc(NC(=O)C2Cc3ncccc3CN2C(=O)c2ccc(F)cc2)cc1 (stereo not drawn) [Compound I-60, N-(4-(N-tert-butylsulfamoyl)phenyl)-6-(4-fluorobenzoyl)-5,6,7,8-tetrahydro-1,6-naphthyridine-7-carboxamide]
2 | > 75 | > 10 | – | – | CC(C)(C)NS(=O)(=O)c1ccc(NC(=O)C2Cc3cnccc3N2C(=O)c2ccc(F)cc2)cc1 (stereo not drawn) [Compound I-55, N-(4-(N-tert-butylsulfamoyl)phenyl)-1-(4-fluorobenzoyl)-2,3-dihydro-1H-pyrrolo[3,2-c]pyridine-2-carboxamide]
3 | > 75 | > 10 | – | – | CC(C)(C)NS(=O)(=O)c1ccc(NC(=O)C2Cc3ccccc3N2C(=O)c2ccc(F)cc2)cc1 (stereo not drawn) [Compound I-53, N-(4-(N-tert-butylsulfamoyl)phenyl)-1-(4-fluorobenzoyl)indoline-2-carboxamide]
4 | – | – | 0.05 to 1 | < 0.05 | CCNS(=O)(=O)c1ccc(NC(=O)[C@H](Cc2ccccc2)NC(=O)c2ccc(F)cc2)nc1 [Compound I-117, (S)-N-(1-(5-(N-ethylsulfamoyl)pyridin-2-ylamino)-1-oxo-3-phenylpropan-2-yl)-4-fluorobenzamide]

Continued, compound first:

Row | Compound | activity at 1 µM (USP30 [1]) [%] | IC50 [2, 4] [µM] | IC50 [2, 5] [µM] | IC50 (USP30 [3]) [µM]
5 | CC(C)(C)NS(=O)(=O)c1ccc(NC(=O)[C@H](Cc2ccccc2)NC(=O)OC2CCOCC2)cc1 [Compound I-43, (S)-tetrahydro-2H-pyran-4-yl 1-(4-(N-tert-butylsulfamoyl)phenylamino)-1-oxo-3-phenylpropan-2-ylcarbamate] | 50 to 75 | – | 1 to 10 | –
6 | CCNS(=O)(=O)c1ccc(NC(=O)[C@H](Cc2ccccc2)N(CC)C(=O)c2ccc(F)cc2)cc1 [Compound I-52, (S)-N-ethyl-N-(1-(4-(N-ethylsulfamoyl)phenylamino)-1-oxo-3-phenylpropan-2-yl)-4-fluorobenzamide] | > 75 | > 10 | – | –
7 | CC(C)(C)NS(=O)(=O)c1ccc(N2C(=O)C(NC(=O)c3ccc(F)cc3)Cc3ccccc32)cc1 (stereo not drawn) [Compound I-20, N-(1-(4-(N-tert-butylsulfamoyl)phenyl)-2-oxo-1,2,3,4-tetrahydroquinolin-3-yl)-4-fluorobenzamide] | > 75 | > 10 | – | –
8 | CC(C)(C)NS(=O)(=O)c1ccc(N2Cc3ccccc3CC(NC(=O)c3ccc(F)cc3)C2=O)cc1 (stereo not drawn) [Compound I-21, N-(2-(4-(N-tert-butylsulfamoyl)phenyl)-3-oxo-2,3,4,5-tetrahydro-1H-benzo[c]azepin-4-yl)-4-fluorobenzamide] | > 75 | > 10 | – | –
9 | COCC(C)(C)NS(=O)(=O)c1ccc(NC(=O)[C@H](Cc2ccccc2)NC(=O)c2ccc(F)cc2)cc1OC [Compound I-149, (S)-4-fluoro-N-(1-(3-methoxy-4-(N-(1-methoxy-2-methylpropan-2-yl)sulfamoyl)phenylamino)-1-oxo-3-phenylpropan-2-yl)benzamide] | – | – | 0.05 to 1 | < 0.05
10 | CC(C)(CN1CCOCC1)NS(=O)(=O)c1ccc(NC(=O)[C@H](Cc2ccccc2)NC(=O)c2ccc(F)cc2)cc1 [Compound I-162, (S)-4-fluoro-N-(1-(4-(N-(2-methyl-1-morpholinopropan-2-yl)sulfamoyl)phenylamino)-1-oxo-3-phenylpropan-2-yl)benzamide] | – | < 0.05 | – | < 0.05
11 | O=C(N[C@@H](Cc1ccccc1)C(=O)Nc1cccc2c(S(=O)(=O)NC3COC3)cccc12)c1ccc(F)cc1 [Compound I-131, (S)-4-fluoro-N-(1-(5-(N-oxetan-3-ylsulfamoyl)naphthalen-1-ylamino)-1-oxo-3-phenylpropan-2-yl)benzamide] | – | – | 0.05 to 1 | 0.05 to 1
12 | CN(C)CCNS(=O)(=O)c1ccc(NC(=O)[C@H](Cc2ccccc2)NC(=O)c2ccc(F)cc2)cc1 [Compound I-133, (S)-N-(1-(4-(N-(2-(dimethylamino)ethyl)sulfamoyl)phenylamino)-1-oxo-3-phenylpropan-2-yl)-4-fluorobenzamide] | – | – | 0.05 to 1 | 1 to 10
